Measured values: US10464896B2, “Efflux-pump inhibitors and therapeutic uses thereof” (Basilea Pharmaceutica International AG, priority 2015, dated 2019)

Columns and labels:
[1] = system: P. aeruginosa PAO1; assay: Antibacterial activity in combination with minocycline (growth inhibition); format: cell-based; details: Pseudomonas aeruginosa, PAO1, compound at 50 μM; minocycline 8 μg/mL; OD625 23 h minus 1 h; read-out: residual growth of P. aeruginosa PAO1 (% of uninhibited control) with minocycline
Procedure, shortened: (§1)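 Test compound combined with fixed subinhibitory partner antibiotic: linezolid 128 μg/mL for either strain, minocycline 0.25 μg/mL (E. coli) or 8 μg/mL (P. aeruginosa), in caMHB shaken at 37 °C. Residual growth as % of inhibitor-free control, from OD625 at 23 h minus 1 h.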

[2] = system: E. coli ATCC25922; assay: as above; format: cell-based; details: Escherichia coli, minocycline 0.25 μg/mL, OD625 23 h minus 1 h, read-out: residual growth of E. coli ATCC25922 (% of uninhibited control) with minocycline; for activity at 25 µM: ATCC25922, compound at 25 μM; for activity at 50 µM: ATCC25922, compound at 50 μM
Procedure, shortened: as §1

Compound	activity at 25 µM [2]	other results
N#Cc1cncc(/C=C/c2cc(O)cc(CNCC3CCNC3)c2)c1 (stereo not shown) [Example 480, 5-[(E)-2-[3-hydroxy-5-[(pyrrolidin-3-ylmethylamino)methyl]phenyl]vinyl]pyridine-3-carbonitrile]	–	activity at 50 µM [1]: ≤ 50%
N#Cc1cncc(/C=C/c2cc(CNCC3CCNC3)cc(OCc3ccccn3)c2)c1 (stereo not shown) [Example 474]	–	activity at 50 µM [1]: ≤ 50%
c1cncc(COc2cc(CNCC3CNC3)cc(OCCc3ccncc3)c2)c1 [Example 425]	–	activity at 50 µM [1]: ≤ 50%
C=CCOc1cc(CNCC2CNC2)cc(OCc2cc(C)on2)c1 [Example 420]	–	activity at 50 µM [1]: ≤ 50%
N#Cc1cncc(/C=C/c2cc(CNCC3CCNC3)cc(OCCc3ccncc3)c2)c1 (stereo not shown) [Example 496]	–	activity at 50 µM [1]: ≤ 50%
CS(=O)(=O)c1ccc(COc2cccc(CNCC3CNC3)c2)c(Cl)c1 [Example 102]	–	activity at 50 µM [1]: ≤ 50%
Clc1ccc(OCc2ccc(CNCC3CNC3)o2)c(Br)c1 [Example 93]	–	activity at 50 µM [1]: ≤ 50%
C=CCOc1cc(CNCC2CNC2)cc(OCc2cncc(C(N)=O)c2)c1 [Example 437]	–	activity at 50 µM [1]: ≤ 50%
O=C(NCc1cc(CNCC2CNC2)cc(OCCc2ccncc2)c1)c1cccnc1 [Example 510]	–	activity at 50 µM [1]: ≤ 50%
O=C(O)c1ccc(COc2cc(CNCC3CNC3)cc(OCc3ccc(Cl)cc3Br)c2)cc1 [Example 208]	–	activity at 50 µM [1]: ≤ 50%
C=CCOc1cc(CNCC2CCNC2)cc(OCCc2ccncc2)c1 (stereo not shown) [Example 424]	–	activity at 50 µM [1]: ≤ 50%
Clc1ccc(CSc2cccc(CNCC3CCNC3)c2)c(Br)c1 (stereo not shown) [Example 136, 1-[3-[(2-bromo-4-chloro-phenyl)methylsulfanyl]phenyl]-N-(pyrrolidin-3-ylmethyl)methanamine]	≤ 10%	–
CC(C)(c1ccccc1)c1ccc(OCCNCC2CCNC2)cc1 (stereo not shown) [Example 42]	≤ 10%	–
C=CCOc1cc(/C=C/c2ccc(C#N)cc2)cc(CNCC2CNC2)c1 [Example 284]	≤ 10%	–
N[C@@H]1CN[C@@H](CNCc2cccc(OCc3ccc(Cl)cc3Br)c2)C1 [Example 172]	≤ 10%	–
Clc1ccc(OCc2ccc(Br)c(OCCCNCC3CNC3)c2)c(Br)c1 [Example 126]	≤ 10%	–
Clc1ccc(/C=C/c2ccc(OCCc3c[nH]cn3)c(CNCC3CCNC3)c2)c(Br)c1 (stereo not shown) [Example 464]	≤ 10%	–
Clc1ccc(COc2cccc(CCCNCC3CNC3)c2)c(Br)c1 [Example 111]	≤ 10%	–
CC(C)(C)c1ccc(COc2cc(CNCC3CNC3)cc(C(C)(C)C)c2)cc1 [Example 295]	≤ 10%	–
C=CCOc1cc(CNCC2CCNC2)cc(C(=O)NCc2ccc(Cl)cc2Br)c1 (stereo not shown) [Example 380]	≤ 10%	–
C=CCOc1ccc(OCCCNCC2CNC2)c(/C=C/c2ccc(Cl)cc2Br)c1 [Example 214]	≤ 10%	–
CC(C)(C)c1ccc(COc2cc(Cl)cc(CNCC3CCNC3)c2)cc1 (stereo not shown) [Example 227]	≤ 10%	–
Clc1ccc(COc2cc(CNCC3CCNC3)cc(OCCc3ccncc3)c2)c(Br)c1 (stereo not shown) [Example 258]	≤ 10%	–

Compound	activity at 25 µM [2]	other results
CC(C)COc1cc(CNCC2CCNC2)cc(OCc2ccc(Cl)nc2)c1 (stereo not shown) [Example 269]	≤ 10%	–
Clc1ccc(COc2ccccc2CCCNCC2CCNC2)c(Br)c1 (stereo not shown) [Example 114]	≤ 10%	–
C=CCOc1cc(CNCC2CCNC2)cc(CNS(=O)(=O)c2ccc(C(C)(C)C)cc2)c1 (stereo not shown) [Example 364]	≤ 10%	–
CC(C)COc1cc(CNCC2CCNC2)cc(OCc2ccc(C(F)(F)F)cc2F)c1 (stereo not shown) [Example 271]	≤ 10%	–
Clc1ccc(/C=C/c2ccc(CNCC3CNC3)cc2)c(Br)c1 [Example 142]	≤ 10%	–
C=CCOc1ccc(OCCNCC2CNC2)c(/C=C/c2ccc(Cl)cc2Br)c1 [Example 212]	≤ 10%	–
C=CCOc1cc(CNCC2CCNC2)cc(C(=O)Nc2ccc(Cl)cc2Br)c1 (stereo not shown) [Example 373]	≤ 10%	–
CC(C)COc1cc(C[N+](C)(C)CC2CNC2)cc(OCc2ccc(Cl)cc2Br)c1 [Example 382]	≤ 10%	–
Clc1ccc(/C=C/c2ccc(CNCC3CCNC3)cc2)c(Br)c1 (stereo not shown) [Example 147]	≤ 10%	–
C=CCOc1cc(/C=C/c2ccc(Cl)cc2Br)cc(CNCCNCC2CNC2)c1 [Example 453]	≤ 10%	–
C=CCOc1cc(/C=C/c2nc(C(C)C)cs2)cc(CNCC2CNC2)c1 [Example 362]	≤ 10%	–
CC(C)(C)c1ccc(COc2ccc(CNCC3CNC3)cc2)cc1 [Example 231]	≤ 10%	–
Clc1ccc(COc2cccc(CNCC3CCNCC3)c2)c(Br)c1 [Example 35]	≤ 10%	–
CC(C)COc1cc(CNCC2CCNC2)cc(OCc2ccc(F)cc2Br)c1 (stereo not shown) [Example 268]	≤ 10%	–
Clc1ccc(/C=C/c2ccc(Cl)cc2OCCCNCC2CNC2)c(Br)c1 [Example 187]	≤ 10%	–
C=CCOc1cc(/C=C/c2ccc(Cl)cc2Br)cc(CNCC(=O)NCC2CNC2)c1 [Example 443]	≤ 10%	–
CC(C)(c1ccccc1)c1ccc(OCCNCC2CCNCC2)cc1 [Example 39]	≤ 10%	–
Clc1ccc(Oc2ccccc2CNCC2CCNC2)c(Br)c1 (stereo not shown) [Example 84]	≤ 10%	–
CC(C)COc1ccc(/C=C/c2ccc(Br)cc2Cl)cc1CNCC1CCNC1 (stereo not shown) [Example 397]	≤ 10%	–
C=CCOc1ccc(OCc2ccc(Cl)cc2Br)cc1CNCC1CCNC1 (stereo not shown) [Example 412]	≤ 10%	–
Clc1ccc(CSc2ccc(CNCC3CCNC3)cc2)c(Br)c1 (stereo not shown) [Example 134]	≤ 10%	–
CC(C)(c1ccccc1)c1ccc(CNCC2CCNCC2)cc1 [Example 46]	≤ 10%	–
c1ccc(-c2cccc(COc3cccc(CNCC4CNC4)c3)c2)cc1 [Example 94]	≤ 10%	–

Compound	activity at 25 µM [2]	other results
C=CCOc1cc(/C=C/c2nc(C(F)(F)F)cs2)cc(CNCC2CNC2)c1 [Example 348]	≤ 10%	–
Cc1cc(COc2ccc(OCCCNCC3CNC3)c(/C=C/c3ccc(Cl)cc3Br)c2)no1 [Example 512]	≤ 10%	–
C=CCOc1cc(/C=C/c2ccncc2C#N)cc(CNCC2CCNC2)c1 (stereo not shown) [Example 306]	≤ 10%	–
C=CCOc1cc(C[N+](C)(C)CC2CNC2)cc(OCc2ccc(Cl)cc2Br)c1 [Example 395]	≤ 10%	–
CC(C)c1cc(CNCC2CCNC2)cc(OCc2ccc(Cl)cc2Br)c1 (stereo not shown) [Example 217]	≤ 10%	–
Clc1ccc(COc2cccc(CNCC3CCNC3)c2)c(I)c1 (stereo not shown) [Example 230]	≤ 10%	–
Clc1ccccc1COc1ccccc1CNCC1CCNCC1 [Example 8]	–	activity at 50 µM [2]: ≤ 50%
C=CCOc1cc(/C=C/c2ccc(Cl)cc2Br)cc(CNC(=O)C2CCNCC2)c1 [Example 354, N-[[3-allyloxy-5-[(E)-2-(2-bromo-4-chloro-phenyl)vinyl]phenyl]methyl]piperidine-4-carboxamide]	≤ 10%	–
O=S(=O)(Cc1ccc(Cl)cc1Br)c1ccc(CNCC2CNC2)cc1 [Example 138]	–	activity at 50 µM [2]: ≤ 50%
Clc1ccc(Oc2cccc(CNCC3CNC3)c2)c(Br)c1 [Example 90]	≤ 10%	–
C=CCOc1cc(CNCC2CNC2)cc(OCCc2cccnc2)c1 [Example 414]	–	activity at 50 µM [2]: ≤ 50%
CC(C)(c1ccccc1)c1ccc(CNCC2CNC2)cc1 [Example 45]	≤ 10%	–
C=CCOc1cc(/C=C/c2ccc(Cl)cc2Br)cc(C(=O)NCCNCC2CNC2)c1 [Example 451]	≤ 10%	–
C=CCOc1ccc(OCCCNCC2CCNC2)c(/C=C/c2ccc(Cl)cc2Br)c1 (stereo not shown) [Example 213]	≤ 10%	–
Clc1ccc(/C=C/c2cc(CNCC3CCNC3)cc(OCc3ccccn3)c2)c(Br)c1 (stereo not shown) [Example 346]	≤ 10%	activity at 50 µM [2]: ≤ 50%
CC(C)COc1cc(CNCC2CCNC2)cc(OCc2ccc(C(F)(F)F)nc2)c1 (stereo not shown) [Example 291]	≤ 10%	–
C=CCOc1cc(/C=C/c2ccnc(C#N)c2)cc(CNCC2CCNC2)c1 (stereo not shown) [Example 324]	≤ 10%	–
Clc1ccc(/C=C/c2cc(CNCC3CNC3)cc(OCCc3c[nH]cn3)c2)c(Br)c1 [Example 261]	≤ 10%	–
C=CCOc1cc(/C=C/c2ccc(C#N)c(C(F)(F)F)c2)cc(CNCC2CCNC2)c1 (stereo not shown) [Example 300]	≤ 10%	–
Cc1cc(COc2ccc(/C=C/c3ccc(Cl)cc3Br)cc2CNC(=O)C2CCNC2)no1 (stereo not shown) [Example 523]	≤ 10%	–
CC(C)COc1cc(/C=C/c2ccc(Cl)cc2Br)cc(CNCC2CNC2)c1 [Example 190]	≤ 10%	–
C=CCOc1cc(/C=C/c2ccc(Cl)cc2Br)cc(C[N+](C)(C)CC(=O)NCC2CNC2)c1 [Example 444]	≤ 10%	–
Clc1ccc(/C=C/c2cccc(CNCC3CNC3)c2)c(Br)c1 [Example 61]	≤ 10%	–
